Assay results published in paper PMC8242589, “Cardiac Safety of Kinase Inhibitors – Improving Understanding and Prediction of Liabilities in Drug Discovery Using Human Stem Cell-Derived Models” (Frontiers in Cardiovascular Medicine, 2021).
Where two headings read alike, the source gives them in different places.

Key:
[1] = system: hSC-CMs (Cor.4U Cardiomyocytes); test: CardioExcyte 96 impedance and EFP recording (beating rate, base impedance); type: cell-based, human; conditions: for activity at 0.03 µM / activity at 0.3 µM / activity at 3 µM / activity at 30 µM: Homo sapiens, Cardiomyocyte, vs baseline before drug (taken as 100%)
Procedure, shortened: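 hSC-CM monolayers (Cor.4U), cultured 4 days at 37 °C, 5% CO2, recorded spontaneously beating; impedance sampled at 1 kHz, EFP at 10 kHz. Beating rate taken as reciprocal of inter-spike interval in EFP. Each test concentration expressed as fractional change versus pre-drug baseline (100%).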

[2] = system: PI3K p110β; conditions: ref [23]–[25] (NVP-BEZ235), [27] (LY 294002), [28] (GDC-0941), [32] (TGX-221), [33] (CAL-101), [35] (CZC24832); read-out: Target IC50 p110β; cited from earlier work
[3] = system: hSC-CMs (Cor.4U Cardiomyocytes); test: ATP assay (CellTiter-Glo Luminescent Cell Viability Assay); type: cell-based, human; conditions: for viability at 0.03 µM / viability at 0.3 µM / viability at 3 µM / viability at 30 µM: Homo sapiens, Cardiomyocyte, normalized to time-matched DMSO control
Procedure, shortened: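 Human stem-cell-derived Cor.4U cardiomyocytes (25,000–30,000/well), cultured 4 days at 37 °C, switched to serum-free BMCC medium 12 h before dosing. Cellular ATP quantified by CellTiter-Glo luminescence and normalized to time-matched DMSO controls; at least three replicates per concentration.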

[4] = system: PI3K p110δ; conditions: ref [23]–[25] (NVP-BEZ235), [27] (LY 294002), [28] (GDC-0941), [33] (CAL-101); read-out: Target IC50 p110δ; cited from earlier work
[5] = system: hSC-CMs (Cor.4U Cardiomyocytes); test: Apoptosis assay (CellEvent Caspase-3/7 Green, IncuCyte ZOOM kinetics over 24 h); type: cell-based, human; set-up: key to Caspase / Caspase MEAN: % of time-matched vehicle control (green object area); conditions: for activity at 0.03 µM / activity at 0.3 µM / activity at 3 µM / activity at 30 µM / activity at 0.1 µM / activity at 1 µM: Homo sapiens, Cardiomyocyte, normalized to time-matched vehicle control; for Apoptosis (caspase-3/7 activation), result in words / Time to reach the maximum number of apoptotic cells: hSC-CMs, monitored over 24 h
Procedure, shortened: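 Cor.4U cardiomyocytes were cultured 4 days at 5% CO2 and 37 °C, given a 2 h baseline, then treated with compound for 24 h. Caspase-3/7 green nuclear signal was imaged every 2 h, and total green object area per well (μm^2/well) was normalized to the time-matched vehicle control. At least three replicates were run per concentration.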

[6] = system: GSK-3β; conditions: ref [46] (CHIR99021), [48] (TWS119); read-out: Target IC50 GSK-3β; cited from earlier work
[7] = system: PI3K p110γ; conditions: ref [23]–[25] (NVP-BEZ235), [28] (GDC-0941), [33] (CAL-101), [35] (CZC24832); read-out: Target IC50 p110γ; cited from earlier work
[8] = system: PI3K p110α; conditions: ref [23]–[25] (NVP-BEZ235), [27] (LY 294002), [28] (GDC-0941), [31] (HS-173), [33] (CAL-101); read-out: Target IC50 p110α; cited from earlier work

Structure (SMILES): O=c1cc(N2CCOCC2)oc2c(-c3ccccc3)cccc12 [LY 294002]
- activity at 0.03 µM ([1]; 2h, read-out: BR): 112%
- activity at 0.03 µM ([1]; 2h, read-out: Base Imp): 72%
- activity at 0.03 µM ([1]; 24h, read-out: BR): 111%
- activity at 0.03 µM ([1]; 24h, read-out: Base Imp): 72%
- activity at 0.3 µM ([1]; 2h, read-out: BR): 109%
- activity at 0.3 µM ([1]; 2h, read-out: Base Imp): 71%
- activity at 0.3 µM ([1]; 24h, read-out: BR): 94%
- activity at 0.3 µM ([1]; 24h, read-out: Base Imp): 75%
- activity at 3 µM ([1]; 2h, read-out: BR): 94%
- activity at 3 µM ([1]; 2h, read-out: Base Imp): 70%
- activity at 3 µM ([1]; 24h, read-out: BR): 63%
- activity at 3 µM ([1]; 24h, read-out: Base Imp): 59%
- activity at 30 µM ([1]; 2h, read-out: BR): 0%
- activity at 30 µM ([1]; 2h, read-out: Base Imp): 50%
- activity at 30 µM ([1]; 24h, read-out: BR): 0%
- activity at 30 µM ([1]; 24h, read-out: Base Imp): 33%
- Effect on cardiomyocyte function in 3D surface plots (beating rate, base impedance, ATP), in words ([1]; hSC-CMs, 2 and 24 h): pronounced effects
- Reduction of base impedance ([1]; hSC-CMs, 2 and 24 h): more than 20%
- Reduction of beating rate ([1]; hSC-CMs, 2 and 24 h): more than 20%
- viability at 0.03 µM ([3]; 2h): 89%
- viability at 0.03 µM ([3]; 24h): 95%
- viability at 0.3 µM ([3]; 2h): 85%
- viability at 0.3 µM ([3]; 24h): 91%
- viability at 3 µM ([3]; 2h): 90%
- viability at 3 µM ([3]; 24h): 78%
- viability at 30 µM ([3]; 2h): 103%
- viability at 30 µM ([3]; 24h): 86%
- Decrease of ATP level ([3]; hSC-CMs, after 24 h of incubation): 20–25%
- activity at 0.03 µM ([5]; 2h): 194%
- activity at 0.03 µM ([5]; 24h): 95%
- activity at 0.3 µM ([5]; 2h): 130%
- activity at 0.3 µM ([5]; 24h): 93%
- activity at 3 µM ([5]; 2h): 110%
- activity at 3 µM ([5]; 24h): 217%
- activity at 30 µM ([5]; 2h): 62%
- activity at 30 µM ([5]; 24h): 428%
- Apoptosis (caspase-3/7 activation), result in words [5]: induced apoptosis in hSC-CMs with a fast onset
- Time to reach the maximum number of apoptotic cells [5]: ≤ 12 h

Structure (SMILES): Nc1cccc(-c2cc3c(Oc4cccc(O)c4)ncnc3[nH]2)c1 [TWS119]
- Effect on cardiomyocyte function in 3D surface plots (beating rate, base impedance, ATP), in words [1]: minimal functional effect
- Effect on hSC-CMs function (base impedance and beating rate), in words [1]: did not produce functionally relevant changes
- BR ([1]; 2h, 0.01 µM): 107
- Base Imp ([1]; 2h, 0.01 µM): 90
- BR ([1]; 2h, 0.1 µM): 102
- Base Imp ([1]; 2h, 0.1 µM): 86
- BR ([1]; 2h, 1 µM): 103
- Base Imp ([1]; 2h, 1 µM): 91
- BR ([1]; 2h, 10 µM): 103
- Base Imp ([1]; 2h, 10 µM): 90
- BR ([1]; 24h, 0.01 µM): 107
- Base Imp ([1]; 24h, 0.01 µM): 86
- BR ([1]; 24h, 0.1 µM): 105
- Base Imp ([1]; 24h, 0.1 µM): 91
- BR ([1]; 24h, 1 µM): 104
- Base Imp ([1]; 24h, 1 µM): 88
- BR ([1]; 24h, 10 µM): 99
- Base Imp ([1]; 24h, 10 µM): 84
- ATP ([3]; 2h, 0.01 µM): 94
- ATP ([3]; 2h, 0.1 µM): 98
- ATP ([3]; 2h, 1 µM): 98
- ATP ([3]; 2h, 10 µM): 96
- ATP ([3]; 24h, 0.01 µM): 102
- ATP ([3]; 24h, 0.1 µM): 98
- ATP ([3]; 24h, 1 µM): 98
- ATP ([3]; 24h, 10 µM): 104
- Effect on ATP level, in words ([3]; hSC-CMs, up to the highest test concentrations): did not impact the ATP level
- IC50 [6]: 0.03 µM
- Caspase ([5]; 2h, 0.01 µM): 142
- Caspase ([5]; 2h, 0.1 µM): 127
- Caspase ([5]; 2h, 1 µM): 127
- Caspase ([5]; 2h, 10 µM): 105
- Caspase ([5]; 24h, 0.01 µM): 137
- Caspase ([5]; 24h, 0.1 µM): 114
- Caspase ([5]; 24h, 1 µM): 96
- Caspase ([5]; 24h, 10 µM): 113
- Apoptosis (caspase-3/7 activation), result in words [5]: did not have any functionally-relevant effect

Structure (SMILES): CS(=O)(=O)N1CCN(Cc2cc3nc(-c4cccc5[nH]ncc45)nc(N4CCOCC4)c3s2)CC1 [GDC-0941, 2-(1 H -Indazol-4-yl)-6-(4-methanesulfonyl-piperazin-1-ylmethyl)-4-morpholin-4-yl-thieno[3,2-d]pyrimidine]
- activity at 0.03 µM ([5]; 2h): 157%
- activity at 0.03 µM ([5]; 24h): 80%
- activity at 0.1 µM ([5]; 0.1 µM, 2h): 138%
- activity at 0.1 µM ([5]; 0.1 µM, 24h): 77%
- activity at 0.3 µM ([5]; 2h): 106%
- activity at 0.3 µM ([5]; 24h): 113%
- activity at 1 µM ([5]; 1 µM, 2h): 104%
- activity at 1 µM ([5]; 1 µM, 24h): 219%
- Apoptosis (caspase-3/7 activation), result in words [5]: induced apoptosis in hSC-CMs with a fast onset
- Time to reach the maximum number of apoptotic cells [5]: ≤ 12 h
